Source: patent US20060069132A1, “Azolecarboxamide herbicides” (priority 2004, published 2006)

Experiments:
[1] = system: smallflower umbrella sedge; assay: Test C flooded paddy test; assay type: in vivo, Cyperus difformis
[2] = system: barnyardgrass; assay: Test B pre-/postemergence herbicide test; assay type: in vivo, Echinochloa crus-galli; conditions: for Barnyardgrass plant response rating: postemergence, scale 0 (no effect) to 100 (complete control)
Outline: (§1)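 Flooded paddy rice and barnyardgrass were treated at the 2-leaf stage; upland plantings received compound either on sown seed or on 1- to 4-leaf seedlings. All were kept 13–15 days in a greenhouse and scored visually, 0–100, relative to untreated plants.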

[3] = system: wild oat; assay: Test B postemergence herbicide test; assay type: in vivo, Avena fatua; conditions: postemergence
Outline: (§2)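 Formulated test chemicals went onto postemergence plants measuring 2 to 18 cm, at one to four leaves. For the paddy assay, species had reached two leaves. Scoring took place 13–15 days later by eye, relative to untreated plants, using 0 for no effect up to 100 for full control.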

[4] = system: velvetleaf; assay: Test B pre-/postemergence herbicide test; assay type: in vivo, Abutilon theophrasti; conditions: for Velvetleaf plant response rating: postemergence
Outline: (§3)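 Response was scored visually 13 to 15 days after treatment against untreated greenhouse controls, 0 meaning no effect and 100 complete control. Formulations (solvent mixture plus surfactant) went onto soil after planting, onto foliage of 1- to 4-leaf plants, and onto 2-leaf plants in a flooded paddy set including rice and barnyardgrass.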

[5] = system: ducksalad; assay: Test C flooded paddy test; assay type: in vivo, Heteranthera limosa
[6] = system: ducksalad; assay: Test B flooded paddy test; assay type: in vivo, Heteranthera limosa; conditions: 1000 g ai/ha, scale 0 to 100 (0 no effect, 100 complete control)
Outline: (§4)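 After treating 2-leaf paddy plants or 2–18 cm postemergence plants (1 to 4 leaves) with formulated chemical, researchers kept them in a greenhouse for 13–15 days. Effects were judged visually versus controls: 0 indicates none, 100 total control.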

[7] = system: rice; assay: Test B flooded paddy test; assay type: in vivo, Oryza sativa; conditions: 1000 g ai/ha, scale 0 to 100 (0 no effect, 100 complete control)
Outline: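 Postemergence plants were sprayed with formulated test chemicals at 2 to 18 cm height (1- to 4-leaf stage); paddy species were grown to the 2-leaf stage. After 13 to 15 days in a greenhouse, injury was rated visually against untreated controls on a 0–100 scale (0 = no effect, 100 = complete control).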

[8] = system: corn; assay: Test B pre-/postemergence herbicide test; assay type: in vivo, Zea mays; conditions: for Corn plant response rating: postemergence
Outline: as §3

[9] = system: wheat; assay: Test B postemergence herbicide test; assay type: in vivo, Triticum aestivum; set-up: key to Wheat plant response rating: 0 = no effect, 100 = complete control; conditions: postemergence
Outline: as §2

[10] = system: rice; assay: Test C flooded paddy test; assay type: in vivo, Oryza sativa
Outline: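 Postemergence sprays applied to plants 2 to 18 cm tall (1- to 4-leaf stage); paddy species grown to 2-leaf stage under flooding. After 12 to 14 days in greenhouse, visual rating versus untreated controls on 0–100 scale (0 no effect, 100 complete control).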

[11] = system: barnyardgrass; assay: Test C flooded paddy test; assay type: in vivo, Echinochloa crus-galli
Outline: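 Greenhouse test with a 12–14 day hold after application and visual comparison with controls. Emerged plants were 1- to 4-leaf stage (2–18 cm) when sprayed postemergence, and the paddy barnyardgrass was at 2 leaves under flooded conditions. 100 = complete control.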

[12] = system: lambsquarters; assay: Test B pre-/postemergence herbicide test; assay type: in vivo, Chenopodium album; conditions: for Lambsquarters plant response rating: postemergence
Outline: as §3

[13] = system: morningglory; assay: Test B pre-/postemergence herbicide test; assay type: in vivo, Ipomoea coccinea; conditions: for Morningglory plant response rating: postemergence
Outline: as §1

[14] = system: blackgrass; assay: Test B postemergence herbicide test; assay type: in vivo, Alopecurus myosuroides; conditions: postemergence, visual rating, scale 0 (no effect) to 100 (complete control)
Outline: as §4

[15] = system: large crabgrass; assay: Test B pre-/postemergence herbicide test; assay type: in vivo, Digitaria sanguinalis; conditions: for Crabgrass, Large plant response rating: postemergence
Outline: as §3

[16] = system: pigweed; assay: Test B pre-/postemergence herbicide test; assay type: in vivo, Amaranthus retroflexus; conditions: for Pigweed plant response rating: postemergence
Outline: as §3

[17] = system: giant foxtail; assay: Test B pre-/postemergence herbicide test; assay type: in vivo, Setaria faberi; conditions: for Foxtail, Giant plant response rating: postemergence
Outline: as §3

[18] = system: small flower umbrella sedge; assay: Test B flooded paddy test; assay type: in vivo, Cyperus difformis; conditions: 1000 g ai/ha, scale 0 to 100 (0 no effect, 100 complete control)
Outline: as §4

[19] = system: barnyardgrass; assay: Test B flooded paddy test; assay type: in vivo, Echinochloa crus-galli; conditions: 1000 g ai/ha, scale 0 to 100 (0 no effect, 100 complete control)
Outline: as §4

[20] = system: rice; assay: Test B pre-/postemergence herbicide test; assay type: in vivo, Oryza sativa; conditions: 0 = no effect, 100 = complete control, preemergence
Outline: as §3

[21] = system: Surinam grass; assay: Test B pre-/postemergence herbicide test; assay type: in vivo, Urochloa decumbens; conditions: for Surinam Grass plant response rating: postemergence
Outline: as §3

[22] = system: cocklebur; assay: Test B pre-/postemergence herbicide test; assay type: in vivo, Xanthium strumarium; conditions: for Cocklebur plant response rating: postemergence, scale 0 (no effect) to 100 (complete control)
Outline: as §1

[23] = 125 g ai/ha, scale 0 to 100 (0 no effect, 100 complete control)
[24] = 250 g ai/ha, scale of 0 to 100, 0 is no effect, 100 is complete control
[25] = 500 g ai/ha, visual rating after 12 to 14 days, scale 0 to 100 (0 no effect, 100 complete control)
[26] = 125 g ai/ha, 0 = no effect, 100 = complete control, preemergence
[27] = 500 g ai/ha, visual rating, 0 = no effect, 100 = complete control, preemergence
[28] = 125 g ai/ha, visual rating, scale 0 (no effect) to 100 (complete control)
[29] = 500 g ai/ha, scale 0 to 100, 0 is no effect, 100 is complete control

## CCn1nc(C(C)(C)C)cc1C(=O)Nc1ccnc(C(=O)N(C)C)c1 [Compound 256]
[1]; 62 g ai/ha, scale 0 to 100
  Sedge, Umbrella plant response rating: 0
[1]; [23]
  Sedge, Umbrella plant response rating: 0
[1]; [24]
  Sedge, Umbrella plant response rating: 60
[1]; [25]
  Plant response rating, Sedge, Umbrella: 60
[2]; [26]
  Barnyardgrass plant response rating (0 to 100 scale): 0
[2]; [27]
  Plant response rating, Barnyardgrass: 70
[2]; 125 g ai/ha, visual rating
  Barnyardgrass plant response rating: 0
[2]; 500 g ai/ha, visual rating
  Barnyardgrass plant response rating: 60
[3]; [28]
  Oat, Wild plant response rating: 10
[3]; [29]
  Oat, Wild plant response rating: 30
[4]; [26]
  Velvetleaf plant response rating (0 to 100 scale): 0
[4]; [27]
  Plant response rating, Velvetleaf: 80
[4]; [28]
  Velvetleaf plant response rating: 10
[4]; [29]
  Velvetleaf plant response rating: 30
[5]; 62 g ai/ha, scale 0 to 100
  Ducksalad plant response rating: 0
[5]; [23]
  Ducksalad plant response rating: 0
[5]; [24]
  Ducksalad plant response rating: 15
[5]; [25]
  Plant response rating, Ducksalad: 65
[6]
  Ducksalad plant response rating: 90
[7]
  Rice plant response rating: 50
[8]; [26]
  Corn plant response rating (0 to 100 scale): 0
[8]; [27]
  Plant response rating, Corn: 0
[8]; [28]
  Corn plant response rating: 0
[8]; [29]
  Corn plant response rating: 10
[9]; [28]
  Wheat plant response rating: 10
[9]; [29]
  Wheat plant response rating: 30
[10]; 62 g ai/ha, scale 0 to 100
  Rice plant response rating: 0
[10]; [23]
  Rice plant response rating: 0
[10]; [24]
  Rice plant response rating: 0
[10]; [25]
  Plant response rating, Rice: 15
[11]; 62 g ai/ha, scale 0 to 100 (0 no effect, 100 complete control)
  Barnyardgrass plant response rating: 0
[11]; [23]
  Barnyardgrass plant response rating: 0
[11]; [24]
  Barnyardgrass plant response rating: 0
[11]; [25]
  Plant response rating, Barnyardgrass: 0
[12]; [27]
  Plant response rating, Lambsquarters: 100
[12]; [28]
  Lambsquarters plant response rating: 30
[12]; [29]
  Lambsquarters plant response rating: 60
[13]; [26]
  Morningglory plant response rating (0 to 100 scale): 0
[13]; [27]
  Plant response rating, Morningglory: 0
[13]; [28]
  Morningglory plant response rating: 0
[13]; [29]
  Morningglory plant response rating: 10
[14]; 125 g ai/ha
  Blackgrass plant response rating: 0
[14]; 500 g ai/ha
  Blackgrass plant response rating: 20
[15]; [26]
  Crabgrass, Large plant response rating (0 to 100 scale): 10
[15]; [27]
  Plant response rating, Crabgrass, Large: 100
[15]; [28]
  Crabgrass, Large plant response rating: 0
[15]; [29]
  Crabgrass, Large plant response rating: 20
[16]; [27]
  Plant response rating, Pigweed: 100
[16]; [28]
  Pigweed plant response rating: 30
[16]; [29]
  Pigweed plant response rating: 60
[17]; [26]
  Foxtail, Giant plant response rating (0 to 100 scale): 0
[17]; [27]
  Plant response rating, Foxtail, Giant: 60
[17]; [28]
  Foxtail, Giant plant response rating: 0
[17]; [29]
  Foxtail, Giant plant response rating: 50
[18]
  Sedge, Umbrella plant response rating: 70
[19]
  Barnyardgrass plant response rating: 30
[20]; 125 g ai/ha
  Rice plant response rating (0 to 100 scale): 30
[20]; 500 g ai/ha, visual rating
  Plant response rating, Rice: 80
[21]; [26]
  Surinam Grass plant response rating (0 to 100 scale): 60
[21]; [27]
  Plant response rating, Surinam Grass: 60
[21]; [28]
  Surinam Grass plant response rating: 0
[21]; [29]
  Surinam Grass plant response rating: 20
[22]; [26]
  Cocklebur plant response rating (0 to 100 scale): 0
[22]; [27]
  Plant response rating, Cocklebur: 0
[22]; 125 g ai/ha, visual rating
  Cocklebur plant response rating: 0
[22]; 500 g ai/ha, visual rating
  Cocklebur plant response rating: 0
